Measurements reported in ChEMBL document CHEMBL1201862, “PubChem BioAssay data set” (2004).
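Each compound was tested at five concentrations against cells in 96-well plates for 48 hours. Abbreviation: GI50, concentration required for 50% inhibition of growth.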 Calls of active or inactive are those of the source. No stated cut-off is given here; in the data, active = GI50 up to about 1.1 µM and inactive = higher.

Key:
Assay in all cases: NCI anticancer screen, dose series, 48 h
A498 = tested on: A498
NCI-H460 = tested on: NCI-H460
SK-MEL-5 = tested on: SK-MEL-5
A549 = tested on: A549
SF-295 = tested on: SF-295
SW-620 = tested on: SW-620
SK-MEL-2 = tested on: SK-MEL-2
TK-10 = tested on: TK-10
HCC 2998 = tested on: HCC 2998
U-251 = tested on: U-251
BT-549 = tested on: BT-549
HOP-92 = tested on: HOP-92
MDA-MB-435 = tested on: MDA-MB-435
M14 = tested on: M14
IGROV-1 = tested on: IGROV-1
OVCAR-3 = tested on: OVCAR-3
K562 = tested on: K562
SNB-75 = tested on: SNB-75
HT-29 = tested on: HT-29
UACC-62 = tested on: UACC-62
MOLT-4 = tested on: MOLT-4
UACC-257 = tested on: UACC-257
HCT-15 = tested on: HCT-15
COLO 205 = tested on: COLO 205
SK-MEL-28 = tested on: SK-MEL-28
Hs-578T = tested on: Hs-578T
SF-268 = tested on: SF-268
MCF7 = tested on: MCF7
DU-145 = tested on: DU-145
SN12C = tested on: SN12C
EKVX = tested on: EKVX
KM12 = tested on: KM12
HCT-116 = tested on: HCT-116
786-0 = tested on: 786-0
PC-3 = tested on: PC-3
LOX IMVI = tested on: LOX IMVI
MDA-MB-231 = tested on: MDA-MB-231
SR = tested on: SR
SF-539 = tested on: SF-539
CAKI-1 = tested on: CAKI-1
CCRF-CEM = tested on: CCRF-CEM
HL-60 = tested on: HL-60
NCI-H23 = tested on: NCI-H23
NCI-H522 = tested on: NCI-H522
OVCAR-8 = tested on: OVCAR-8
OVCAR-4 = tested on: OVCAR-4
NCI/ADR-RES = tested on: NCI/ADR-RES
RXF 393 = tested on: RXF 393
ACHN = tested on: ACHN
OVCAR-5 = tested on: OVCAR-5
MDA-N = tested on: MDA-N
SNB-19 = tested on: SNB-19
UO-31 = tested on: UO-31
T47D = tested on: T47D
HOP-62 = tested on: HOP-62
Malme-3M = tested on: Malme-3M
NCI-H226 = tested on: NCI-H226
SK-OV-3 = tested on: SK-OV-3
RPMI-8226 = tested on: RPMI-8226

Compound: C[N+]1(C)CC[N+](C)(C)[BH-]1C(O)O
- GI50 (A498): > 100 µM (inactive)
- GI50 (NCI-H460): > 100 µM (inactive)
- GI50 (SK-MEL-5): > 100 µM (inactive)
- GI50 (A549): > 100 µM (inactive)
- GI50 (SF-295): > 100 µM (inactive)
- GI50 (SW-620): > 100 µM (inactive)
- GI50 (SK-MEL-2): > 100 µM (inactive)
- GI50 (TK-10): > 100 µM (inactive)
- GI50 (HCC 2998): > 100 µM (inactive)
- GI50 (U-251): > 100 µM (inactive)
- GI50 (BT-549): > 100 µM (inactive)
- GI50 (HOP-92): > 100 µM (inactive)
- GI50 (MDA-MB-435): > 100 µM (inactive)
- GI50 (M14): > 100 µM (inactive)
- GI50 (IGROV-1): > 100 µM (inactive)
- GI50 (OVCAR-3): > 100 µM (inactive)
- GI50 (K562): > 100 µM (inactive)
- GI50 (SNB-75): 0.376 µM (active)
- GI50 (HT-29): > 100 µM (inactive)
- GI50 (UACC-62): > 100 µM (inactive)
- GI50 (MOLT-4): > 100 µM (inactive)
- GI50 (UACC-257): > 100 µM (inactive)
- GI50 (HCT-15): > 100 µM
- GI50 (COLO 205): > 100 µM (inactive)
- GI50 (SK-MEL-28): > 100 µM (inactive)
- GI50 (Hs-578T): > 100 µM (inactive)
- GI50 (SF-268): > 100 µM (inactive)
- GI50 (MCF7): > 100 µM (inactive)
- GI50 (DU-145): > 100 µM (inactive)
- GI50 (SN12C): > 100 µM (inactive)
- GI50 (EKVX): > 100 µM (inactive)
- GI50 (KM12): > 100 µM (inactive)
- GI50 (HCT-116): > 100 µM (inactive)
- GI50 (786-0): > 100 µM (inactive)
- GI50 (PC-3): > 100 µM (inactive)
- GI50 (LOX IMVI): > 100 µM (inactive)
- GI50 (MDA-MB-231): > 100 µM (inactive)
- GI50 (SR): > 100 µM (inactive)
- GI50 (SF-539): > 100 µM (inactive)
- GI50 (CAKI-1): > 100 µM (inactive)
- GI50 (CCRF-CEM): > 100 µM (inactive)
- GI50 (HL-60): > 100 µM (inactive)
- GI50 (NCI-H23): > 100 µM (inactive)
- GI50 (NCI-H522): > 100 µM (inactive)
- GI50 (OVCAR-8): > 100 µM (inactive)
- GI50 (OVCAR-4): > 100 µM (inactive)
- GI50 (NCI/ADR-RES): > 100 µM (inactive)
- GI50 (RXF 393): > 100 µM (inactive)
- GI50 (ACHN): > 100 µM (inactive)
- GI50 (OVCAR-5): > 100 µM (inactive)
- GI50 (MDA-N): > 100 µM (inactive)
- GI50 (SNB-19): > 100 µM (inactive)
- GI50 (UO-31): > 100 µM (inactive)
- GI50 (T47D): > 100 µM (inactive)
- GI50 (HOP-62): > 100 µM (inactive)

Compound: CC(C)OC(=O)[C@@H]1OC(C)(C)O[C@H]1C(=O)OC(C)C
- GI50 (A498): > 100 µM (inactive)
- GI50 (NCI-H460): > 100 µM (inactive)
- GI50 (SK-MEL-5): > 100 µM (inactive)
- GI50 (Malme-3M): > 100 µM (inactive)
- GI50 (A549): > 100 µM (inactive)
- GI50 (SF-295): > 100 µM (inactive)
- GI50 (SW-620): > 100 µM (inactive)
- GI50 (SK-MEL-2): > 100 µM (inactive)
- GI50 (TK-10): > 100 µM (inactive)
- GI50 (HCC 2998): > 100 µM (inactive)
- GI50 (U-251): > 100 µM (inactive)
- GI50 (BT-549): > 100 µM (inactive)
- GI50 (HOP-92): > 100 µM (inactive)
- GI50 (MDA-MB-435): > 100 µM (inactive)
- GI50 (IGROV-1): > 100 µM (inactive)
- GI50 (K562): > 100 µM (inactive)
- GI50 (SNB-75): > 100 µM (inactive)
- GI50 (HT-29): > 100 µM (inactive)
- GI50 (UACC-62): > 100 µM (inactive)
- GI50 (MOLT-4): > 100 µM (inactive)
- GI50 (UACC-257): > 100 µM (inactive)
- GI50 (HCT-15): > 100 µM
- GI50 (COLO 205): > 100 µM (inactive)
- GI50 (Hs-578T): > 100 µM (inactive)
- GI50 (SF-268): > 100 µM (inactive)
- GI50 (MCF7): > 100 µM (inactive)
- GI50 (DU-145): > 100 µM (inactive)
- GI50 (SN12C): > 100 µM (inactive)
- GI50 (EKVX): > 100 µM (inactive)
- GI50 (KM12): > 100 µM (inactive)
- GI50 (NCI-H226): > 100 µM (inactive)
- GI50 (HCT-116): > 100 µM (inactive)
- GI50 (786-0): > 100 µM (inactive)
- GI50 (PC-3): > 100 µM (inactive)
- GI50 (LOX IMVI): > 100 µM (inactive)
- GI50 (MDA-MB-231): > 100 µM (inactive)
- GI50 (SR): > 100 µM (inactive)
- GI50 (SF-539): > 100 µM (inactive)
- GI50 (CAKI-1): > 100 µM (inactive)
- GI50 (CCRF-CEM): > 100 µM (inactive)
- GI50 (SK-OV-3): > 100 µM (inactive)
- GI50 (NCI-H23): > 100 µM (inactive)
- GI50 (NCI-H522): > 100 µM (inactive)
- GI50 (RPMI-8226): > 100 µM (inactive)
- GI50 (OVCAR-8): > 100 µM (inactive)
- GI50 (OVCAR-4): > 100 µM (inactive)
- GI50 (NCI/ADR-RES): > 100 µM (inactive)
- GI50 (RXF 393): > 100 µM (inactive)
- GI50 (ACHN): > 100 µM (inactive)
- GI50 (OVCAR-5): > 100 µM (inactive)
- GI50 (MDA-N): > 100 µM (inactive)
- GI50 (SNB-19): > 100 µM (inactive)
- GI50 (UO-31): > 100 µM (inactive)
- GI50 (T47D): > 100 µM (inactive)
- GI50 (HOP-62): > 100 µM (inactive)

Compound: Nc1ncnc2c1ncn2[C@@H]1C[C@H](NO)[C@@H](O)[C@H]1O
- GI50 (A498): > 100 µM (inactive)
- GI50 (NCI-H460): > 100 µM (inactive)
- GI50 (SK-MEL-5): > 100 µM (inactive)
- GI50 (Malme-3M): > 100 µM (inactive)
- GI50 (A549): > 100 µM (inactive)
- GI50 (SF-295): > 100 µM (inactive)
- GI50 (SW-620): 26.9 µM (inactive)
- GI50 (SK-MEL-2): > 100 µM (inactive)
- GI50 (TK-10): > 100 µM (inactive)
- GI50 (HCC 2998): > 100 µM (inactive)
- GI50 (U-251): > 100 µM (inactive)
- GI50 (BT-549): > 100 µM (inactive)
- GI50 (HOP-92): > 100 µM (inactive)
- GI50 (MDA-MB-435): > 100 µM (inactive)
- GI50 (M14): > 100 µM (inactive)
- GI50 (IGROV-1): > 100 µM (inactive)
- GI50 (OVCAR-3): > 100 µM (inactive)
- GI50 (K562): 28.1 µM (inactive)
- GI50 (SNB-75): > 100 µM (inactive)
- GI50 (UACC-62): > 100 µM (inactive)
- GI50 (MOLT-4): 83.4 µM (inactive)
- GI50 (UACC-257): > 100 µM (inactive)
- GI50 (HCT-15): 16.4 µM
- GI50 (COLO 205): > 100 µM (inactive)
- GI50 (SK-MEL-28): > 100 µM (inactive)
- GI50 (Hs-578T): > 100 µM (inactive)
- GI50 (SF-268): > 100 µM (inactive)
- GI50 (MCF7): 49.3 µM (inactive)
- GI50 (DU-145): > 100 µM (inactive)
- GI50 (SN12C): > 100 µM (inactive)
- GI50 (EKVX): > 100 µM (inactive)
- GI50 (KM12): 9.25 µM (inactive)
- GI50 (NCI-H226): > 100 µM (inactive)
- GI50 (HCT-116): 4.88 µM (inactive)
- GI50 (786-0): > 100 µM (inactive)
- GI50 (PC-3): > 100 µM (inactive)
- GI50 (LOX IMVI): 13.1 µM (inactive)
- GI50 (MDA-MB-231): > 100 µM (inactive)
- GI50 (SR): 3.55 µM (inactive)
- GI50 (SF-539): 33.5 µM (inactive)
- GI50 (CCRF-CEM): 22.3 µM (inactive)
- GI50 (SK-OV-3): > 100 µM (inactive)
- GI50 (NCI-H23): > 100 µM (inactive)
- GI50 (NCI-H522): > 100 µM (inactive)
- GI50 (RPMI-8226): 10.8 µM (inactive)
- GI50 (OVCAR-8): > 100 µM (inactive)
- GI50 (OVCAR-4): > 100 µM (inactive)
- GI50 (NCI/ADR-RES): 68.5 µM (inactive)
- GI50 (RXF 393): > 100 µM (inactive)
- GI50 (ACHN): > 100 µM (inactive)
- GI50 (OVCAR-5): > 100 µM (inactive)
- GI50 (MDA-N): > 100 µM (inactive)
- GI50 (SNB-19): > 100 µM (inactive)
- GI50 (UO-31): 7.33 µM (inactive)
- GI50 (T47D): > 100 µM (inactive)
- GI50 (HOP-62): > 100 µM (inactive)
